The structures appear in SMILES notation. Calls of active or inactive are those of the source. The rule behind the calls is not given here.

The test system of assay [1] is Pseudomonas aeruginosa. Nature of the assay: Antimicrobial activity against Pseudomonas aeruginosa SR24 in presence of human apo-transferrin by broth microdilution method. The class given is functional. (In broth dilution the organism is exposed to a series of concentrations in liquid medium.)
Assay [2] concerns Pseudomonas aeruginosa. Nature of the assay: Antimicrobial activity against AmpC overproducing Pseudomonas aeruginosa SR24-12 in presence of human apo-transferrin by broth microdilution method. It is filed as functional.
The test system of assay [3] is Pseudomonas aeruginosa. The assay is described as follows: Antimicrobial activity against IMP-1 producing Pseudomonas aeruginosa SR27001 in presence of human apo-transferrin by broth microdilution method. It is filed as functional.
For assay [4], the system named is Pseudomonas aeruginosa. Nature of the assay: Antimicrobial activity against IMP-1 producing Pseudomonas aeruginosa SR27060 in presence of human apo-transferrin by broth microdilution method. The class given is functional.
Assay [5] deals with Pseudomonas aeruginosa. The assay is described as follows: Antimicrobial activity against Pseudomonas aeruginosa 27060deltaR1 harboring deletion of R1 plasmid in presence of human apo-transferrin by broth microdilution method. The class given is functional.
For another assay, the system named is Acinetobacter baumannii. Nature of the assay: Antimicrobial activity against OXA-23/OXA-58 producing Acinetobacter baumannii SR27323 in presence of human apo-transferrin by broth microdilution method. It is filed as functional.
Another assay has as its system Klebsiella pneumoniae. The assay is described as follows: Antimicrobial activity against KPC-2 producing Klebsiella pneumoniae ATCC BAA-1705 in presence of human apo-transferrin by broth microdilution method. The class given is functional.
A further assay has as its system Escherichia coli. The assay is described as follows: Antimicrobial activity against SHV-4 producing Escherichia coli ATCC BAA-200 in presence of human apo-transferrin by broth microdilution method. It is filed as functional.
The test system of assay [6] is Pseudomonas aeruginosa. The assay is described as follows: Antibacterial activity against Pseudomonas aeruginosa SR27001 infected in Jcl:ICR mouse systemic infection model assessed as increase in mouse survival rate administered iv 1 to 5 hrs post infection measured over 7 days. It is filed as functional.
The nature of assay [7]: Iron chelating activity in presence of cetyltrimethylammonium bromide at pH 5.5 by chromeazurol B dye based spectrophotometric method.
Assay [8] concerns Pseudomonas aeruginosa. The assay is described as follows: Antimicrobial activity against VIM-2 producing Pseudomonas aeruginosa SBRKM-28 in presence of human apo-transferrin by broth microdilution method. It is filed as functional.
The subject of assay [9] is Stenotrophomonas maltophilia. Nature of the assay: Antimicrobial activity against L-1 producing Stenotrophomonas maltophilia SR21970 in presence of human apo-transferrin by broth microdilution method. It is filed as functional.

What is called MIC is the lowest concentration found to suppress growth. One may read the ED50 as the dose at which the effect has come halfway, by size or by number of responders. `CC(C)(O/N=C(\C(=O)N[C@@H]1C(=O)N2C(C(=O)[O-])=C(C[N+]3(CCNC(=O)c4ccc(O)c(O)c4Cl)CCCC3)CS[C@H]12)c1csc(N)n1)C(=O)O` [CEFIDEROCOL]: the MIC stood at 0.25 µg/mL with Pseudomonas aeruginosa [1]; 0.5 µg/mL in the assay on Pseudomonas aeruginosa [2]; 1 µg/mL with Pseudomonas aeruginosa [3]; 2 µg/mL with Pseudomonas aeruginosa [4]; 1 µg/mL in the assay with Pseudomonas aeruginosa [5]; 1 µg/mL in the assay on Acinetobacter baumannii. Moreover, the MIC with Klebsiella pneumoniae was 0.063 µg/mL; with Escherichia coli it was 1 µg/mL. In addition, the ED50 with Pseudomonas aeruginosa [6] is 5.48 mg/kg. In assay [7], the result was Active.

For the molecule `CC(C)(O/N=C(\C(=O)N[C@@H]1C(=O)N2C(C(=O)[O-])=C(C[N+]3(CCNC(=O)c4cc(=O)c(O)c[nH]4)CCCC3)CS[C@H]12)c1csc(N)n1)C(=O)O`, the MIC amounted to 0.25 µg/mL in the assay on Pseudomonas aeruginosa [1]; 0.25 µg/mL in the assay on Pseudomonas aeruginosa [2]; 4 µg/mL in the assay on Pseudomonas aeruginosa [3]; 0.25 µg/mL in the assay with Pseudomonas aeruginosa [8]; 4 µg/mL in the assay on Pseudomonas aeruginosa [4]; 1 µg/mL with Pseudomonas aeruginosa [5]. Also, the MIC is 0.25 µg/mL in assay [9], 1 µg/mL in the assay on Acinetobacter baumannii, 0.063 µg/mL in the assay on Klebsiella pneumoniae and 1 µg/mL in the assay with Escherichia coli. The ED50 with Pseudomonas aeruginosa [6] turned out to be 10.2 mg/kg. In addition, in assay [7], the result was Active.
